In patent US20260028365A1 (BIOGEN MA INC., priority 2022, published 2026) one finds IC50 data, which are given here for ten molecules.

Assay [1] deals with JH2 domain of human Tyk2 (Homo sapiens (Human), UniProt P29597). In words: JH2 Biochemical Assay (TR-FRET probe displacement). It is filed as binding.
Assay [2] concerns the target Tyk2 (Homo sapiens (Human), UniProt P29597). In words: pSTAT4 Cell Assay (MSD, NK92 cells). The assay is classed as cell-based.
The target in assay [3] is JAK2 (Homo sapiens (Human), UniProt O60674). In words: pSTAT5 Cell Assay (MSD, TF1 cells). The assay is classed as cell-based. How it is done:
Compounds of the disclosure were assessed for their ability to inhibit the JAK2 kinase activity on STAT5 utilizing an MSD-platform plate-based assay format. TF1 cells natively expressing STAT5 and JAK2 were serum-starved to reduce background phosphorylation levels, then cells were treated with compounds of disclosure for 1 hour with a 10-point four-fold dilution series starting at 10 μM. Cells were then stimulated with 30 ng/mL IL-3 for 15 minutes. Cells were then lysed and pSTAT5 levels were quantitated using an MSD plate-based assay with anti-STAT5 antibodies. The data were normalized and the percent activity versus log concentration of compound was fitted with a 4-parameter logistic model to generate a curve and an IC50 value.

The target of assay [4] is JAK1 (Homo sapiens (Human), UniProt P23458). In words: pSTAT3 Cell Assay (MSD, TF1 cells). The assay is classed as cell-based. The protocol:
The inhibitory potency of compounds of the disclosure against the JAK1 kinase activity on STAT3 was evaluated using an MSD-platform plate-based assay format. TF1 cells natively expressing STAT3 and JAK1 were serum-starved to reduce background phosphorylation levels, then cells were treated with compounds of the disclosure for 1 hour with a 10-point four-fold dilution series starting at 10 μM. Cells were then stimulated with 30 ng/mL interleukin 6 (IL-6) for 15 minutes. Cells were lysed and pSTAT3 levels were quantitated using an MSD plate-based assay with anti-STAT3 antibodies. The data were normalized and the percent activity versus log concentration of compound was fitted with a 4-parameter logistic model to generate IC50 curves.

[5] abbreviates: TR-FRET probe displacement, JH2 domain of human Tyk2.
The mark [6] stands for this setting: JH2 domain of human Tyk2, TR-FRET probe displacement.

Read-outs that look alike come from different tables or passages of the source. A value given as a limit tells only on which side of the number the result lay.

Sequence of Tyk2 (P29597 whole entry): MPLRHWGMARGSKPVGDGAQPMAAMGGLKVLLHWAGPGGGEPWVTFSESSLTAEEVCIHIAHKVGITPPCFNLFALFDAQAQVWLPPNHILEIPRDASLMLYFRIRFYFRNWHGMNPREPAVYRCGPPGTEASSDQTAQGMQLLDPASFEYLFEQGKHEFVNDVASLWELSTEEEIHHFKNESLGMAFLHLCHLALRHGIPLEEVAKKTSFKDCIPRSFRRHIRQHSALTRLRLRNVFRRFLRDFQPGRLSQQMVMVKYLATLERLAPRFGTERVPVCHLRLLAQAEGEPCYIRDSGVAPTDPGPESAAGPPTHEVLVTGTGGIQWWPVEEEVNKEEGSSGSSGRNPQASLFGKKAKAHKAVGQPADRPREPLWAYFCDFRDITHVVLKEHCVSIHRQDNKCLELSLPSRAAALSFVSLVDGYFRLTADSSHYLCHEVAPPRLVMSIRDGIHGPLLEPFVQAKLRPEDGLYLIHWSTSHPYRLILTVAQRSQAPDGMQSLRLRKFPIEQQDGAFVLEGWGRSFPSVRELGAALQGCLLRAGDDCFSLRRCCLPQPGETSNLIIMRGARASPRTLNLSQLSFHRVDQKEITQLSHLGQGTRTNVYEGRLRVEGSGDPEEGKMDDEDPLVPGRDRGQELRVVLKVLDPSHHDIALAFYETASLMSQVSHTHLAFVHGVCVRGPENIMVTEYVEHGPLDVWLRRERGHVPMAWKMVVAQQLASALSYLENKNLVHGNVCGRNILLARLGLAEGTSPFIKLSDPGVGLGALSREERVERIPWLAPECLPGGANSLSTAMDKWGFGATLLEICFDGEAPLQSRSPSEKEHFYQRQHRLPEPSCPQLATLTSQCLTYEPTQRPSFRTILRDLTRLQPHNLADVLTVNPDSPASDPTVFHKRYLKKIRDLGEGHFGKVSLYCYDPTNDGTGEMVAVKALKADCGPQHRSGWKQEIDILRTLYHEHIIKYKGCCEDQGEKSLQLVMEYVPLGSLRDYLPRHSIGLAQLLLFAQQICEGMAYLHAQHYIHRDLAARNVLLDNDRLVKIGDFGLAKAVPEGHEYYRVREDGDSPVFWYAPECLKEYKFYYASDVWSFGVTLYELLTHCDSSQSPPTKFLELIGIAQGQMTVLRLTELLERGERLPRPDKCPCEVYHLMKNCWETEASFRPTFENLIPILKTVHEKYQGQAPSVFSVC
Sequence of JAK2 (O60674 whole entry): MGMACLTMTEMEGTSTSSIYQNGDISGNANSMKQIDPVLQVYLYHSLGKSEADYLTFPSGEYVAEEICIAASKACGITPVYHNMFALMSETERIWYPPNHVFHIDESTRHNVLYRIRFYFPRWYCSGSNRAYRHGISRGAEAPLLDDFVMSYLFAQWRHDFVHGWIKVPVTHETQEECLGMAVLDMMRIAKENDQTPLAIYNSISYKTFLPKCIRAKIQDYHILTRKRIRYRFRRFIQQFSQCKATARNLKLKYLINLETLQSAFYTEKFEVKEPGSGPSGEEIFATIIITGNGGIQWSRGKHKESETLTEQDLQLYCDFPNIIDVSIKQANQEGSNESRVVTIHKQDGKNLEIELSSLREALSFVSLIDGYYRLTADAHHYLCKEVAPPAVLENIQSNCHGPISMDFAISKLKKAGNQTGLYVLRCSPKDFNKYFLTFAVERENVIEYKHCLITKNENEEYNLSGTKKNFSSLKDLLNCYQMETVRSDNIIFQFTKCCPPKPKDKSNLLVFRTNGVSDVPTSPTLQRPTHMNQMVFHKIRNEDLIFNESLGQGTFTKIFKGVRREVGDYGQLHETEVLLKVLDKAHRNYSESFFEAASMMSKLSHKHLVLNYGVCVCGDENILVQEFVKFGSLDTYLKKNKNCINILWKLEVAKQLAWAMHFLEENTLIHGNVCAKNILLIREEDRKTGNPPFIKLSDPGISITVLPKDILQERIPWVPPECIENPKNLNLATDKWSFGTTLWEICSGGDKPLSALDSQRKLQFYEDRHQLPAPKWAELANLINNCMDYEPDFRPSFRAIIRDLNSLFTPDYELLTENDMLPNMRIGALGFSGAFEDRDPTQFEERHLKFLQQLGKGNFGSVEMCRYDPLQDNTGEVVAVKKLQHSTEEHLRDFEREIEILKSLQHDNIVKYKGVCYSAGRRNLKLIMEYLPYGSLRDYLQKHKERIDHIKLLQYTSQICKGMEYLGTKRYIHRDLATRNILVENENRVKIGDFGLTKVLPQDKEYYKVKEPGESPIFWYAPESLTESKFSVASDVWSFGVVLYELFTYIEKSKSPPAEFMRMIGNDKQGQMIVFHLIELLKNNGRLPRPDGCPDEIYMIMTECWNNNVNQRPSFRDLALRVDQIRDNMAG
Sequence of JH2 domain of human Tyk2 (P29597 575-876): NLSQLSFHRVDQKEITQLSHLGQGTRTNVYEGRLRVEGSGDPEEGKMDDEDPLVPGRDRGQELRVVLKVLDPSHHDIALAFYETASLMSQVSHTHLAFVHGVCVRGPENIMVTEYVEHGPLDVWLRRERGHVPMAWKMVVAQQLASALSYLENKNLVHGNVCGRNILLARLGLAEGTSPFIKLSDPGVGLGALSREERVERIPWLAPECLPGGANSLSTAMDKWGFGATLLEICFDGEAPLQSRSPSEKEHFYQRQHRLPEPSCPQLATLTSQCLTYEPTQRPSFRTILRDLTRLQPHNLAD
Sequence of JAK1 (P23458 whole entry): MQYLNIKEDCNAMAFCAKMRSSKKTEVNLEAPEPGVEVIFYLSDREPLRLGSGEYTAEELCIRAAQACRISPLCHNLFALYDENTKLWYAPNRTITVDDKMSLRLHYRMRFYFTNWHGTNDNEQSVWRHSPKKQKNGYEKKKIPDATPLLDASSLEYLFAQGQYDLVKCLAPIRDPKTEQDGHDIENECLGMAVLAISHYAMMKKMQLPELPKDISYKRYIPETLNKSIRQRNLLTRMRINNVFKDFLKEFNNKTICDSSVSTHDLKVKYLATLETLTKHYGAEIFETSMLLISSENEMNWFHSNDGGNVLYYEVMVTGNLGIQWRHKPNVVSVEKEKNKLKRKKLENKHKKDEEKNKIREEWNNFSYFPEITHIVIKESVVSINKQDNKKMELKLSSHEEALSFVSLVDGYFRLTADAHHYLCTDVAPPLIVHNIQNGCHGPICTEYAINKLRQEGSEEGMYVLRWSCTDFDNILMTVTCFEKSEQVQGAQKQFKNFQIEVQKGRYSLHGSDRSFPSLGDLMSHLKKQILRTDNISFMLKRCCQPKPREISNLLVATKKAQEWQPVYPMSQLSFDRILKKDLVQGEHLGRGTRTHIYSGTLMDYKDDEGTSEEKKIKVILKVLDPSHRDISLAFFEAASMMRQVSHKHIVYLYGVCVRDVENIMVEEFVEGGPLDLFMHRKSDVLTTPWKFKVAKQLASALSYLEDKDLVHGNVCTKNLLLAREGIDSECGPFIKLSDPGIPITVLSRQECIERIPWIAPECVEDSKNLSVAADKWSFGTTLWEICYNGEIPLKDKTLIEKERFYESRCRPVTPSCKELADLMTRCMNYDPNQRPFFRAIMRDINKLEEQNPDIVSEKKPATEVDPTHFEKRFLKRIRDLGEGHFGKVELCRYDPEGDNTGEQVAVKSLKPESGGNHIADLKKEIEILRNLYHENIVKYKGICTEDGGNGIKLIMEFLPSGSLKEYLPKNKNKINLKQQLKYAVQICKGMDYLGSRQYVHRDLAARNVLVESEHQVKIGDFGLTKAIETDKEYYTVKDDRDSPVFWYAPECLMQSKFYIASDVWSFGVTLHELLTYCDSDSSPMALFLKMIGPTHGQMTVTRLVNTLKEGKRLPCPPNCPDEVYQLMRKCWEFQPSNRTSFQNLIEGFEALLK

Turning to `CO[C@H]1C[C@H](Oc2cnc(NC(C)=O)cc2Nc2cc(OC3CC3)nc(C(C)(F)F)n2)C1` [Example 350, N-(4-((6-cyclopropoxy-2-(1,1-difluoroethyl)pyrimidin-4-yl)amino)-5-((1r,3r)-3-methoxycyclobutoxy)pyridin-2-yl)acetamide], the IC50 in assay [1] (setting [5]) was at most 10 nM; in assay [2] (MSD), 10 to 100 nM; in assay [3] (IL-3 stimulation, MSD), at least 1000 nM; in assay [4] (IL-6 stimulation, MSD), at least 1000 nM.
Take `CCOc1cnc(NC(C)=O)cc1Nc1cc(OC2CC2)nc(C(C)(F)F)n1` [Example 490, N-(4-((6-cyclopropoxy-2-(1,1-difluoroethyl)pyrimidin-4-yl)amino)-5-ethoxypyridin-2-yl)acetamide]: the IC50 is at most 10 nM in assay [1] (setting [6]); at most 10 nM in assay [2] (MSD); at least 1000 nM in assay [3] (IL-3 stimulated, MSD); at least 1000 nM in assay [4] (IL-6 stimulated, MSD).
As for `COc1ccc(-c2cnc(NC(C)=O)cc2Nc2ccnc(C(C)(C)F)n2)nn1` [Example 835, N-(4-((2-(2-fluoropropan-2-yl)pyrimidin-4-yl)amino)-5-(6-methoxypyridazin-3-yl)pyridin-2-yl)acetamide], the IC50 in assay [1] (TR-FRET probe displacement, JH2 domain) is at most 10 nM; in assay [2], at most 10 nM; in assay [3] (IL-3 stimulated), at least 1000 nM; in assay [4] (IL-6 stimulated), at least 1000 nM.
For the molecule `CC(=O)Nc1cc(Nc2cc(C)nc(C(C)(F)F)n2)c(-c2ncc(C#N)cn2)cn1` [Example 655, N-(5-(5-cyanopyrimidin-2-yl)-4-((2-(1,1-difluoroethyl)-6-methylpyrimidin-4-yl)amino)pyridin-2-yl)acetamide], the IC50 in assay [1] (setting [6]) is at most 10 nM; in assay [2] (MSD), 10 to 100 nM; in assay [3] (IL-3 stimulated, MSD), at least 1000 nM; in assay [4] (IL-6 stimulated, MSD) it was at least 1000 nM.
For `CC(=O)Nc1cc(Nc2cc(C)nc(C(C)(F)F)n2)c(OCc2ccccn2)cn1` [Example 101, N-(4-((2-(1,1-difluoroethyl)-6-methylpyrimidin-4-yl)amino)-5-(pyridin-2-ylmethoxy)pyridin-2-yl)acetamide], the IC50 in assay [1] (setting [5]) was at most 10 nM; in assay [2] (MSD) it was 10 to 100 nM; in assay [3] (IL-3 stimulation, MSD), at least 1000 nM; in assay [4] (IL-6 stimulation, MSD), at least 1000 nM.
Take `COCCOc1cnc(NC(C)=O)cc1Nc1cc(OC)nc(C(C)(F)F)n1` [Example 21, N-(4-((2-(1,1-difluoroethyl)-6-methoxypyrimidin-4-yl)amino)-5-(2-methoxyethoxy)pyridin-2-yl)acetamide]: the IC50 is at most 10 nM in assay [1] (setting [5]); 10 to 100 nM in assay [2] (MSD); at least 1000 nM in assay [3] (IL-3 stimulation, MSD); at least 1000 nM in assay [4] (IL-6 stimulation, MSD).
Take `COCCOc1cnc(NC(C)=O)cc1Nc1cc(OC(C)C)nc(C(C)(F)F)n1` [Example 76, N-(4-((2-(1,1-difluoroethyl)-6-isopropoxypyrimidin-4-yl)amino)-5-(2-methoxyethoxy)pyridin-2-yl)acetamide]: the IC50 in assay [1] (setting [5]) was at most 10 nM; in assay [2] (MSD), at most 10 nM; in assay [3] (IL-3 stimulation, MSD) it was at least 1000 nM; in assay [4] (IL-6 stimulation, MSD), at least 1000 nM.
On to `CCOc1cnc(NC(C)=O)cc1Nc1cc(-c2cnn(C3CC3)c2)nc(C(C)(F)F)n1` [Example 304, N-(4-((6-(1-cyclopropyl-1H-pyrazol-4-yl)-2-(1,1-difluoroethyl)pyrimidin-4-yl)amino)-5-ethoxypyridin-2-yl)acetamide], for which the IC50 was at most 10 nM in assay [1] (setting [5]); at most 10 nM in assay [2] (MSD); at least 1000 nM in assay [3] (IL-3 stimulation, MSD); at least 1000 nM in assay [4] (IL-6 stimulation, MSD).
Consider `CCOc1cnc(NC(C)=O)cc1Nc1cc(CC)nc(C(C)(F)F)n1` [Example 12, N-(4-((2-(1,1-difluoroethyl)-6-ethylpyrimidin-4-yl)amino)-5-ethoxypyridin-2-yl)acetamide], for which the IC50 is at most 10 nM in assay [1] (setting [5]); 10 to 100 nM in assay [2] (MSD); at least 1000 nM in assay [3] (IL-3 stimulation, MSD); at least 1000 nM in assay [4] (IL-6 stimulation, MSD).
As for `CC(=O)Nc1cc(Nc2cc(C)nc(C(C)(F)F)n2)c(-c2ncc(F)cn2)cn1` [Example 182, N-(4-((2-(1,1-difluoroethyl)-6-methylpyrimidin-4-yl)amino)-5-(5-fluoropyrimidin-2-yl)pyridin-2-yl)acetamide], the IC50 in assay [1] (setting [5]) was at most 10 nM; in assay [2] (MSD) it was 10 to 100 nM; in assay [3] (IL-3 stimulation, MSD) it was at least 1000 nM; in assay [4] (IL-6 stimulation, MSD), at least 1000 nM.
